According to ChEMBL document CHEMBL5696442, “Discovery of type II inhibitors of TGFβ-activated kinase 1 (TAK1) and mitogen-activated protein kinase kinase kinase kinase 2 (MAP4K2)” (J Med Chem, 2015):

How the values were obtained:
[1] = biological target: T1, Interleukin-1 receptor-associated kinase 4 (Homo sapiens) (UniProt Q9NWZ3); assay: Inhibition of IRAK4 Lys2 labeling site in human Huh-7 cell lysate at 1 uM by KiNativ Profiling analysis relative to control; type: subcellular
T1 sequence (whole entry): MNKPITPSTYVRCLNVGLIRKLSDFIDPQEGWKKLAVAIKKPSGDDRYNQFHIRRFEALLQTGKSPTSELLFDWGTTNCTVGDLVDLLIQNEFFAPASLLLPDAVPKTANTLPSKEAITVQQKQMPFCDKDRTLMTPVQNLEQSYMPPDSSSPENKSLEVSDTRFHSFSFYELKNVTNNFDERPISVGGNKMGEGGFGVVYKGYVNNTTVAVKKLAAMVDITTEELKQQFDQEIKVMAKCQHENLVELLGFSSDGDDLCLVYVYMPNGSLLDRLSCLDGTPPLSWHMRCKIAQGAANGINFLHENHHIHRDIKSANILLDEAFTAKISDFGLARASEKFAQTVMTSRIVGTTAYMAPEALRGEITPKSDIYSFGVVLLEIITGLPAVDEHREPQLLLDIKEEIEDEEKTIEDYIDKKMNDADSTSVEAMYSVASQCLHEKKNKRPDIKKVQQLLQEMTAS

[2] = biological target: T2, Phosphatidylinositol 5-phosphate 4-kinase type-2 alpha (Homo sapiens) (UniProt P48426); assay: Inhibition of PIP4K2A ATP labeling site harbouring TVKHGAGAEISTVNPEQYSK in human Huh-7 cell lysate at 1 uM by KiNativ Profiling analysis relative to control; type: subcellular
T2 sequence (whole entry): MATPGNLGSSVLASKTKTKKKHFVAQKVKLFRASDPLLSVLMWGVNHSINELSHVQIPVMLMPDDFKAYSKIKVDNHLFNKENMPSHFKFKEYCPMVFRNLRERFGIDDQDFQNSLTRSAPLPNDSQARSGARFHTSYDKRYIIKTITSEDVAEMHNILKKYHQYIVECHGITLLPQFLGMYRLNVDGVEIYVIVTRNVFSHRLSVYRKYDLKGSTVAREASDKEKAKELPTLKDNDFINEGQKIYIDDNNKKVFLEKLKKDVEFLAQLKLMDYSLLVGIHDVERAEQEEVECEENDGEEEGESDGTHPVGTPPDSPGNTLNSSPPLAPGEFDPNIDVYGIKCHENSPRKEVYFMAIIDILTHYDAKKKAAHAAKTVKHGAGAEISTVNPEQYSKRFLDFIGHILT

[3] = biological target: Serine/threonine-protein kinase SMG1 (Homo sapiens) (UniProt Q96Q15); assay: Inhibition of SMG1 ATP labeling site in human Huh-7 cell lysate at 1 uM by KiNativ Profiling analysis relative to control; type: subcellular
Sequence of Serine/threonine-protein kinase SMG1 (Homo sapiens) (Q96Q15 whole entry): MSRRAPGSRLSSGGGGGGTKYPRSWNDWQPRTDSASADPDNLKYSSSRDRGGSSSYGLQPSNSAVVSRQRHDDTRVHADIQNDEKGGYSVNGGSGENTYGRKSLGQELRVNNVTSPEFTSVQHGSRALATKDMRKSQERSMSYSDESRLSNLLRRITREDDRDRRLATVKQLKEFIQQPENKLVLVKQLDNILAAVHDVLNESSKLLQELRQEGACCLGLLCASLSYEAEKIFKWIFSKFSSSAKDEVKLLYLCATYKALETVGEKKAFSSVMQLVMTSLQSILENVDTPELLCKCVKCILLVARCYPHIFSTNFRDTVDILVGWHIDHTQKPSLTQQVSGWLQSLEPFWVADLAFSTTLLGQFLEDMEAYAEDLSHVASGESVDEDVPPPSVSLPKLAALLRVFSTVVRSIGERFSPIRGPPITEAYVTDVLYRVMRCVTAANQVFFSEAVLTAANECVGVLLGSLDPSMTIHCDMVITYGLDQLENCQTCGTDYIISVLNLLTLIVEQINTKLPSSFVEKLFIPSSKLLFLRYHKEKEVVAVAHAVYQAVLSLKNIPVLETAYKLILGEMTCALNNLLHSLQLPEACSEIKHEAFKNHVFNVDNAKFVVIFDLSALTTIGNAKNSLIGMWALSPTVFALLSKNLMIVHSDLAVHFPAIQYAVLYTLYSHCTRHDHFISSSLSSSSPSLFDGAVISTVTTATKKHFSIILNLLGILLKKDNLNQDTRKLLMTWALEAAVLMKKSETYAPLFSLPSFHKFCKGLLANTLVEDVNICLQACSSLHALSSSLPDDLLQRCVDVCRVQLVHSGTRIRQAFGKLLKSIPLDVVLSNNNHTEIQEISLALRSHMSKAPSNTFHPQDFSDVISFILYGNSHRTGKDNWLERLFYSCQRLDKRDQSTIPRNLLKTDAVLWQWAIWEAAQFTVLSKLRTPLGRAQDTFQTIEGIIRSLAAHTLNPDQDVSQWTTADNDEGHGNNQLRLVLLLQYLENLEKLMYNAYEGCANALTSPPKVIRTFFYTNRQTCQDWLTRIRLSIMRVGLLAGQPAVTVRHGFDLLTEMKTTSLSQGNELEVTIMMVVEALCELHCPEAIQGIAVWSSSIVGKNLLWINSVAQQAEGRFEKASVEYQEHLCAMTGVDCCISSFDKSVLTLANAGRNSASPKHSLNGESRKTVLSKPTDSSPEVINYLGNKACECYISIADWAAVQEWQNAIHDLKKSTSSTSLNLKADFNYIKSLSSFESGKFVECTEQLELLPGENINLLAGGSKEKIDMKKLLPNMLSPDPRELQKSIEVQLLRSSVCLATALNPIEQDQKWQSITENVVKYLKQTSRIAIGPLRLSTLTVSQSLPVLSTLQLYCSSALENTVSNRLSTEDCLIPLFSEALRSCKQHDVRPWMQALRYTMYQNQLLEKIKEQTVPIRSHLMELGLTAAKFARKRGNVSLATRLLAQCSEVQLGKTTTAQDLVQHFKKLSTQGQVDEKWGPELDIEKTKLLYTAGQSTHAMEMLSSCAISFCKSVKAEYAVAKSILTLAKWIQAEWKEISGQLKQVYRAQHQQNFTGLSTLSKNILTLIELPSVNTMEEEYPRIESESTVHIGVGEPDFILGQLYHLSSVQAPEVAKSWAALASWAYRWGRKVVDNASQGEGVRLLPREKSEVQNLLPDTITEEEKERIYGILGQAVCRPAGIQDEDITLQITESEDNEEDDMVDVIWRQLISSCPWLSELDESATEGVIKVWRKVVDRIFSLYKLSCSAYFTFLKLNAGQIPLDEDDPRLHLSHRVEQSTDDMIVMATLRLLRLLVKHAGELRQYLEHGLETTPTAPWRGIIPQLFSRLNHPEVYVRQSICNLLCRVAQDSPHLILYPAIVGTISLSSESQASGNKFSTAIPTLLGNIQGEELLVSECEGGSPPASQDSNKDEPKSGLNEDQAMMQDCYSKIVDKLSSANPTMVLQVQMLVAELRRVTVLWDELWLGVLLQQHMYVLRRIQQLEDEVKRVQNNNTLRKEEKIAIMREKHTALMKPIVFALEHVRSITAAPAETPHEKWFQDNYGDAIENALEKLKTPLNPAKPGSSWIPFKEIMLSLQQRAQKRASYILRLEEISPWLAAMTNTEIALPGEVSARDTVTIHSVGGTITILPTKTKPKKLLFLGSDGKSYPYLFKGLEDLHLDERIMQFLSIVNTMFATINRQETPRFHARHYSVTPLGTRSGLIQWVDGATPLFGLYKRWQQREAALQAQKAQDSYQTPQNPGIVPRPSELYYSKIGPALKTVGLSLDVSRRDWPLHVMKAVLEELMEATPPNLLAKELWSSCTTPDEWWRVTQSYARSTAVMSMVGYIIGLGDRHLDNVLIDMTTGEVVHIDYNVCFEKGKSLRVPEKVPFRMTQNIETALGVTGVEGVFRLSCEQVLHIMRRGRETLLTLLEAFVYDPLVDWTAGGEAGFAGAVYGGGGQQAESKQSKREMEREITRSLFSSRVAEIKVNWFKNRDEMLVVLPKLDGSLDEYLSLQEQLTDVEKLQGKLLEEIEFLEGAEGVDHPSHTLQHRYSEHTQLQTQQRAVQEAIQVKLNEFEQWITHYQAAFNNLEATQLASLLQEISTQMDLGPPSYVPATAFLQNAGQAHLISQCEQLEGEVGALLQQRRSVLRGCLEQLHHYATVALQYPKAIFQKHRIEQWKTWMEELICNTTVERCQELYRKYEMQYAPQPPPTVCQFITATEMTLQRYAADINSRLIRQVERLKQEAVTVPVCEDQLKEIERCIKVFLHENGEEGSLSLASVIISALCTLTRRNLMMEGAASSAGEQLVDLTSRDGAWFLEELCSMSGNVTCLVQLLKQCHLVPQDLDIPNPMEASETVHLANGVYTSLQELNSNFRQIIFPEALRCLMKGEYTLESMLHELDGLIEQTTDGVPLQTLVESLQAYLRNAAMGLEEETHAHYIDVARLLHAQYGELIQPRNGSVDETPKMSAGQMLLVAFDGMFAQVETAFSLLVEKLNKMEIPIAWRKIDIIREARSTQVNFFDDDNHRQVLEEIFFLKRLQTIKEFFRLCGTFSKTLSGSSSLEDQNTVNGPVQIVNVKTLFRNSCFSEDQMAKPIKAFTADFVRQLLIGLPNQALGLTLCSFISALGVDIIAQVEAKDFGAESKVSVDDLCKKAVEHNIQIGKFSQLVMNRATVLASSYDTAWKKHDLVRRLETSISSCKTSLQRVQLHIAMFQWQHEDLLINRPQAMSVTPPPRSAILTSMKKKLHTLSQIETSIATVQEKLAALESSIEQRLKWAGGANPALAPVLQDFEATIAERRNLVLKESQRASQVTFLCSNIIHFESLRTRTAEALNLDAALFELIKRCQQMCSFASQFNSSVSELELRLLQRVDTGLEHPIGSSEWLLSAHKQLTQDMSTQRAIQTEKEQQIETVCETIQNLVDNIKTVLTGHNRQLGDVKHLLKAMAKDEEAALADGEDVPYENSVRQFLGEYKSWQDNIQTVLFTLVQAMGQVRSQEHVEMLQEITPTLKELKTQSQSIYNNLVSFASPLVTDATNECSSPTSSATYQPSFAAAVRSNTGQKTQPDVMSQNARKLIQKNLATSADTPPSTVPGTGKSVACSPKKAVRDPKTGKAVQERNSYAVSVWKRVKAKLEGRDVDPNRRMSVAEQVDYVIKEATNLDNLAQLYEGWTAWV

[4] = biological target: DNA-PK/Ku70/Ku85 (Homo sapiens) (UniProt P78527+P12956+P13010); assay: Inhibition of DNAPK ATP labeling site harbouring KGGSWIQEINVAEKNWYPR in human Huh-7 cells at 1 uM by KiNativ Profiling analysis relative to control; type: cell-based
[5] = tested on: Epidermal growth factor receptor (Homo sapiens), P00533 [T790M]; assay: Inhibition of EGFR T790M mutant (unknown origin) at 1 uM by Ambit Kinomescan binding assay relative to control
Sequence of Epidermal growth factor receptor (Homo sapiens), P00533 [T790M] (P00533 whole entry T790M): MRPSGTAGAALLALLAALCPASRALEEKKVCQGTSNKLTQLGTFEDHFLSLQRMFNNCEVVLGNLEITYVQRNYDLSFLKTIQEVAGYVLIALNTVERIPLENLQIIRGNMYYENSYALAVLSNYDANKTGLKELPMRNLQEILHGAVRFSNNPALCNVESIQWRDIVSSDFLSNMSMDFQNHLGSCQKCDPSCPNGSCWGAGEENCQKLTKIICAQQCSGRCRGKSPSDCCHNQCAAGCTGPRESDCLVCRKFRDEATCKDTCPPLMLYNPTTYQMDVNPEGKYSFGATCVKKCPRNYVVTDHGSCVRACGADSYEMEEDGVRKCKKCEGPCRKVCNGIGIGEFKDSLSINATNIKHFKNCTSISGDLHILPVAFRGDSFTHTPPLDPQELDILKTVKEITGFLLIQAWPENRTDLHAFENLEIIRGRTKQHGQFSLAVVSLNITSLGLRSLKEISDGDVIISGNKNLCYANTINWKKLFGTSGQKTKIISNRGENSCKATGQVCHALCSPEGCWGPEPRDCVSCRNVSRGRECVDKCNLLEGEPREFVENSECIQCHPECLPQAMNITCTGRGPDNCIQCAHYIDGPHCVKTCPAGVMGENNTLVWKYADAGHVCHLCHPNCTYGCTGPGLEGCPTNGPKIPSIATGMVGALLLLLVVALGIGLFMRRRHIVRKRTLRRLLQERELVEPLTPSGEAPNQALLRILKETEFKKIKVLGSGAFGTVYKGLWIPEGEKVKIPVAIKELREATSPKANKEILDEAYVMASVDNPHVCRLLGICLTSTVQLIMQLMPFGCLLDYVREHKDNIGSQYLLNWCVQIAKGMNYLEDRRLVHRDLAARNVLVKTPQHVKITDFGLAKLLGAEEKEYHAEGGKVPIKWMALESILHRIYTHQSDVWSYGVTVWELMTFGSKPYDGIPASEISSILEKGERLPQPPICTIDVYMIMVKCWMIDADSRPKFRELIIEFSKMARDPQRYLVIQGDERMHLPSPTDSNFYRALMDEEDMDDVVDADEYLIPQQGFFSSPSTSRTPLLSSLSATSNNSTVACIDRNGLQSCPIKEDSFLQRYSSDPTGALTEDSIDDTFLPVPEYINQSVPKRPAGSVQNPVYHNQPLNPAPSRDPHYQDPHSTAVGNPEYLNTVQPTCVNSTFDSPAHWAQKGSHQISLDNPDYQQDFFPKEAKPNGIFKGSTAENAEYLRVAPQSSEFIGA

[6] = biological target: T3, Phosphatidylinositol 5-phosphate 4-kinase type-2 gamma (Homo sapiens) (UniProt Q8TBX8); assay: Inhibition of PIP4K2C ATP labeling site harbouring VKELPTLKDMDFLNK in human A-375 cells at 5 uM by KiNativ Profiling analysis relative to control; type: cell-based
T3 sequence (whole entry): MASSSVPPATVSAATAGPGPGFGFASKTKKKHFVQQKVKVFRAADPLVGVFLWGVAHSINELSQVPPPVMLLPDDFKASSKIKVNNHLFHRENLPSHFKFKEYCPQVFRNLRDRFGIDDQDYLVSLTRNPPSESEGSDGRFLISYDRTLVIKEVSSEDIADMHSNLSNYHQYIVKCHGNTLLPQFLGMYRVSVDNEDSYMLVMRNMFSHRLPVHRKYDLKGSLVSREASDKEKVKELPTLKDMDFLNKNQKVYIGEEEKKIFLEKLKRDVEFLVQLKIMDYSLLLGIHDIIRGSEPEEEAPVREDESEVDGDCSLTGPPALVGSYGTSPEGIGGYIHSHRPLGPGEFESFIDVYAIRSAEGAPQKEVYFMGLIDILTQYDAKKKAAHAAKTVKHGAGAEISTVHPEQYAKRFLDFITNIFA

[7] = biological target: Microtubule-associated serine/threonine-protein kinase 2 (Homo sapiens) (UniProt Q6P0Q8); assay: Inhibition of MAST2 Lys2 labeling site in human A-375 cells at 0.05 uM by KiNativ Profiling analysis relative to control; type: cell-based
[8] = biological target: Serine/threonine-protein kinase 4 (Homo sapiens) (UniProt Q13043); assay: Inhibition of MST1 Lys1 labeling site harbouring ETGQIVAIKQVPVESDLQEIIK in human A-375 cells at 5 uM by KiNativ Profiling analysis relative to control
Ephrin type-A receptor 2 = Ephrin type-A receptor 2 (Homo sapiens, UniProt P29317); assay: Inhibition of EphA2 ACT labeling site in human A-375 cells at 5 uM by KiNativ Profiling analysis relative to control; type: cell-based
[9] = biological target: Mitogen-activated protein kinase kinase kinase kinase 4 (Homo sapiens, UniProt O95819); assay: Inhibition of MAP4K4 (unknown origin) at 10 uM by Ambit Kinomescan binding assay relative to control

SMILES: CNc1cc(Oc2cc(C(=O)Nc3cc(N4CCN(C)CC4)cc(C(F)(F)F)c3)ccc2C)ncn1
- inhibition [1]: 8.4%
- inhibition [2]: -5.4%
- inhibition [3]: 4.2%
- inhibition [4]: 68.1%

SMILES: CCN1CCN(Cc2ccc(NC(=O)c3ccc(C)c(/C=C/c4cnc5[nH]ccc5c4OC)c3)cc2C(F)(F)F)CC1
- inhibition [5]: 68%
- inhibition [6]: 8.5%
- inhibition [7]: -1.4%
- inhibition [8]: 27.6%

SMILES: CCN1CCN(Cc2ccc(NC(=O)c3ccc(C)c(Oc4ccnc5[nH]ccc45)c3)cc2C(F)(F)F)CC1
- inhibition (Ephrin type-A receptor 2): 57.7%
- inhibition [9]: 0%
